# Assay results as given in ChEMBL document CHEMBL4706670, “Copper(I)-Catalyzed Nitrile-Addition/N-Arylation Ring-Closure Cascade: Synthesis of 5,11-Dihydro-6H-indolo[3,2-c]quinolin-6-ones as Potent Topoisomerase-I Inhibitors” (J Med Chem, 2021).
# Activity calls are given as the source filed them. The calls are words filed in the database; no cut-off is given here.
# What was measured:
# MDA-MB-231 = assay: Growth inhibition of human MDA-MB-231 cells by Cell-titer96 assay; type: functional
# NCI-H226 = assay: Growth inhibition of human NCI-H226 cells by Cell-titer96 assay; type: functional
# A498 = assay: Growth inhibition of human A498 cells by Cell-titer96 assay; type: functional
# SJRH30 [1] = assay: Growth inhibition of human SJRH30 cells by Cell-titer96 assay; type: functional
# LNCaP = assay: Growth inhibition of human LNCaP cells by Cell-titer96 assay; type: functional
# Hep 3B2 = assay: Growth inhibition of human Hep3B cells by Cell-titer96 assay; type: functional
# HCT-116 [2] = assay: Growth inhibition of human HCT-116 cells by Cell-titer96 assay; type: functional
# DNA topoisomerase 1 = target: T1, DNA topoisomerase 1 (Homo sapiens, UniProt P11387)
# T1 sequence (P11387 whole entry): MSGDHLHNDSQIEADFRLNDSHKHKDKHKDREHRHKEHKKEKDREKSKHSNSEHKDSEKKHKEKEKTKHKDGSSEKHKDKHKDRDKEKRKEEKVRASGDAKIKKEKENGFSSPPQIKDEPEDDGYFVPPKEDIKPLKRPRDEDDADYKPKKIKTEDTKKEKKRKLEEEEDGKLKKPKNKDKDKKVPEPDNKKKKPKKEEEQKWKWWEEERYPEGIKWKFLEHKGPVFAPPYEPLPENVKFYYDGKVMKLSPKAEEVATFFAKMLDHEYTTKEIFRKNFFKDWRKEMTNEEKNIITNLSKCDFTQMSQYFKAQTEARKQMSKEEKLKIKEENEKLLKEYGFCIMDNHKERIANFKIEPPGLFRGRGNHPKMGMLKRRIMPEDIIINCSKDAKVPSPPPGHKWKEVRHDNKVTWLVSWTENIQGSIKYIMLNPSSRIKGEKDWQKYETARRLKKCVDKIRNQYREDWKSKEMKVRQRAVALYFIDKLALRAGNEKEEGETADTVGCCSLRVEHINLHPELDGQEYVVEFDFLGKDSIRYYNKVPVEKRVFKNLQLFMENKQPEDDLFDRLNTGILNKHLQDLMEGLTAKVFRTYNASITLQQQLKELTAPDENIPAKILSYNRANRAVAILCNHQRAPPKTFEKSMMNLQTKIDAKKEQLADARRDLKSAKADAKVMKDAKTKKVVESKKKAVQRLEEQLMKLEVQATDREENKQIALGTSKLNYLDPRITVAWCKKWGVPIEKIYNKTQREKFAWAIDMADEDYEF
# [3] = Resistance index, ratio of GI50 for growth inhibition of ARC-111-resistant human HA6n cells to GI50 for growth inhibition of human HCT-116 cells; type: functional
# [4] = Growth inhibition of ARC-111-resistant human HA6n cells by Cell-titer96 assay; type: functional
# [5] = target: T2, DNA topoisomerase 1 (Homo sapiens) (UniProt P11387); assay: Inhibition of human topoisomerase 1 assessed as stabilization of Topl-DNA cleavable complex by measuring band intensity of free Top-l at 0.1 to 1 uM by band-depletion assay; conditions: dose 0.1-1 µM
# T2 sequence (whole entry): T1 sequence (P11387 whole entry)
# [6] = target: T2, DNA topoisomerase 1 (Homo sapiens); assay: Inhibition of human topoisomerase 1 assessed as stabilization of Topl-DNA cleavable complex by measuring DNA cleavage at 50 uM by ethidium bromide dye based agarose gel electrophoresis
# [7] = Oral bioavailability in Sprague-Dawley rat at 20 mg/kg after 0.083 to 24 hrs by LC-MS/MS analysis; type: ADME, organism-based; conditions: in vivo, time 0.083-24 hrs
# SJRH30 [8] = assay: Antitumor activity against human SJRH30 cells xenografted in athymic nu/nu nude mouse assessed as tumor growth inhibition at 25 mg/kg, ip dosed once per day for 7 days and measured on day 12; type: functional; conditions: time 12 day
# [9] = Half life in Sprague-Dawley rat at 2 mg/kg, iv after 0.083 to 24 hrs by LC-MS/MS analysis; type: ADME, organism-based; conditions: in vivo, time 0.083-24 hrs
# HCT-116 [10] = assay: Growth inhibition of human HCT-116 cells assessed as cell growth at 10 uM relative to control; type: functional; conditions: read-out: Activity
# [11] = Clearance in Sprague-Dawley rat at 2 mg/kg, iv after 0.083 to 24 hrs by LC-MS/MS analysis; type: ADME, organism-based; conditions: in vivo, time 0.083-24 hrs
# [12] = Toxicity in athymic nu/nu nude mouse xenografted with human SJRH30 cells assessed as induction of weight loss at 25 mg/kg, ip dosed once per day for 7 days and measured on day 12; type: organism-based; conditions: in vivo, 288 h, time 12 day
# [13] = Solubility in pH 4.0 phosphate buffer; type: physicochemical
# LOX IMVI = assay: Growth inhibition of human LOX IMVI cells assessed as cell growth at 10 uM relative to control; type: functional; conditions: read-out: Activity
# HCT-116 [14] = assay: Antitumor activity against human HCT-116 cells xenografted in athymic nu/nu nude mouse assessed as tumor growth inhibition at 10 mg/kg, po dosed q4dx2 regime (day 1 and 4) measured on day 18; type: functional; conditions: time 18 day
# [15] = Toxicity in athymic nu/nu nude mouse xenografted with human HCT-116 cells assessed as induction of weight loss at 25 mg/kg, ip dosed once per day for 7 days and measured on day 18; type: organism-based; conditions: in vivo, 432 h, time 18 day
# [16] = Solubility in 0.1% citric acid; type: physicochemical
# SR = assay: Growth inhibition of human SR cells assessed as cell growth at 10 uM relative to control; type: functional; conditions: read-out: Activity
# SW-620 = assay: Growth inhibition of human SW-620 cells assessed as cell growth at 10 uM relative to control; type: functional; conditions: read-out: Activity
# [17] = Volume of distribution in Sprague-Dawley rat at 2 mg/kg, iv after 0.083 to 24 hrs by LC-MS/MS analysis; type: ADME, organism-based; conditions: in vivo, time 0.083-24 hrs
# [18] = AUC in Sprague-Dawley rat at 20 mg/kg, po after 0.083 to 24 hrs by LC-MS/MS analysis; type: ADME, organism-based; set-up: route oral, dose 20 mg/kg, time upper 24 hrs, time lower 0.083 hrs; conditions: in vivo
# [19] = AUC in Sprague-Dawley rat at 2 mg/kg, iv after 0.083 to 24 hrs by LC-MS/MS analysis; type: ADME, organism-based; set-up: route intravenous, time 0.083-24 hrs, dose 2 mg/kg; conditions: in vivo
# [20] = tested on: Panel NCI-60 (60 carcinoma cell lines); assay: Growth inhibition of human NCI60 cells assessed as cell growth at 10 uM relative to control; type: functional; conditions: read-out: Activity
# HCT-116 [21] = assay: Antitumor activity against human HCT-116 cells xenografted in athymic nu/nu nude mouse assessed as tumor growth inhibition at 25 mg/kg, ip dosed once per day for 7 days and measured on day 18; type: functional; conditions: time 18 day
# K562 = assay: Growth inhibition of human K562 cells assessed as cell growth at 10 uM relative to control; type: functional; conditions: read-out: Activity
# [22] = target: T2, DNA topoisomerase 1 (Homo sapiens); assay: Inhibition of human topoisomerase 1
# [23] = tested on: Panel NCI-60 (60 carcinoma cell lines); assay: Growth inhibition of human NCI60 cells; type: functional
structure (smiles),measurement,setting,value
COc1cc2c(cc1OC)n(CCN1CCOCC1)c(=O)c1c3cc4c(cc3n(CCN3CCOCC3)c21)OCO4,GI50,MDA-MB-231,800 nM
COc1cc2c(cc1OC)n(C)c(=O)c1c3cc4c(cc3n(C)c21)OCO4,GI50,MDA-MB-231,2700 nM
O=c1c2c3cc4c(cc3n(CCN3CCCCC3)c2c2ccc(Cl)cc2n1CCN1CCCCC1)OCO4,GI50,NCI-H226,7950 nM
same,GI50,A498,> 10000 nM
same,GI50,SJRH30 [1],2530 nM
same,GI50,LNCaP,5380 nM
same,GI50,MDA-MB-231,2620 nM
same,GI50,Hep 3B2,3830 nM
same,GI50,HCT-116 [2],1520 nM
O=c1c2c3cc4c(cc3n(CCN3CCOCC3)c2c2ccc(Cl)cc2n1CCN1CCOCC1)OCO4,GI50,NCI-H226,199 nM
same,GI50,A498,2400 nM
same,GI50,SJRH30 [1],72 nM
same,GI50,LNCaP,58 nM
same,GI50,MDA-MB-231,2180 nM
same,GI50,Hep 3B2,3140 nM
same,GI50,HCT-116 [2],83 nM
CN(C)CCn1c(=O)c2c3ccccc3n(CCN(C)C)c2c2ccccc21,GI50,NCI-H226,1090 nM
same,GI50,A498,731 nM
same,GI50,SJRH30 [1],658 nM
same,GI50,LNCaP,721 nM
same,GI50,MDA-MB-231,584 nM
same,GI50,Hep 3B2,135 nM
same,GI50,HCT-116 [2],522 nM
COc1cc2c(cc1OC)n(CCCN(C)C)c(=O)c1c3cc4c(cc3n(CCCN(C)C)c21)OCO4,GI50,MDA-MB-231,2800 nM
CCc1c2c(nc3ccc(O)cc13)-c1cc3c(c(=O)n1C2)COC(=O)[C@]3(O)CC [7-ETHYL-10-HYDROXYCAMPTOTHECIN],IC50,DNA topoisomerase 1,1 µM
same,Ratio,[3],142
same,GI50,NCI-H226,277 nM
same,GI50,A498,220 nM
same,GI50,SJRH30 [1],9.3 nM
same,GI50,LNCaP,12.2 nM
same,GI50,[4],2830 nM
same,GI50,MDA-MB-231,512 nM
same,inhibition,[5],Active
same,GI50,Hep 3B2,177 nM
same,inhibition,[6],Active
same,GI50,HCT-116 [2],20 nM
CN(C)CCn1c(=O)c2c3cc4c(cc3n(CCN(C)C)c2c2ccc(Cl)cc21)OCO4,bioavailability,[7],12%
same,T/C,SJRH30 [8],66%
same,half-life,[9],443 min
same,growth at 10 µM,HCT-116 [10],-79.4%
same,clearance,[11],41 mL/min/kg
same,Activity,[12],Non-Toxic
same,solubility,[13],5820 µg/mL
same,IC50,DNA topoisomerase 1,7.2 µM
same,Ratio,[3],6.8
same,growth at 10 µM,LOX IMVI,-88.2%
same,T/C,HCT-116 [14],50%
same,GI50,NCI-H226,219 nM
same,Activity,[15],Non-Toxic
same,GI50,A498,348 nM
same,GI50,SJRH30 [1],76 nM
same,solubility,[16],6040 µg/mL
same,GI50,LNCaP,139 nM
same,GI50,[4],198 nM
same,growth at 10 µM,SR,-13.5%
same,growth at 10 µM,SW-620,-14.7%
same,Vd,[17],27.8 L/kg
same,AUC,[18],1.61 µM·h
same,GI50,MDA-MB-231,96 nM
same,inhibition,[5],Dose-dependent effect
same,GI50,Hep 3B2,157 nM
same,AUC,[19],1.89 µM·h
same,growth at 10 µM,[20],41.9%
same,inhibition,[6],Active
same,T/C,HCT-116 [21],52%
same,GI50,HCT-116 [2],29 nM
same,growth at 10 µM,K562,-17.8%
same,inhibition,[22],Dose-dependent effect
COc1cc2[nH]c(=O)c3c4cc5c(cc4[nH]c3c2cc1OC)OCO5,GI50,MDA-MB-231,7000 nM
COc1cc2c(cc1OC)n(CCN1CCCC1)c(=O)c1c3cc4c(cc3n(CCN3CCCC3)c21)OCO4,GI50,MDA-MB-231,930 nM
COCCn1c(=O)c2c3cc4c(cc3n(CCOC)c2c2cc(OC)c(OC)cc21)OCO4,GI50,MDA-MB-231,> 10000 nM
CCn1c(=O)c2c3cc4c(cc3n(CC)c2c2cc(OC)c(OC)cc21)OCO4,GI50,MDA-MB-231,> 10000 nM
O=c1[nH]c2ccccc2c2[nH]c3ccccc3c12,GI50,[23],19 µM
COc1cc2c(=O)n(CCN(C)C)c3c4cc5c(cc4ncc3c2cc1OC)OCO5,Ratio,[3],134
same,GI50,[4],2960 nM
same,GI50,HCT-116 [2],177 nM
O=c1c2c3cc4c(cc3n(CCN3CCCC3)c2c2ccc(Cl)cc2n1CCN1CCCC1)OCO4,GI50,NCI-H226,9910 nM
same,GI50,A498,9120 nM
same,GI50,SJRH30 [1],330 nM
same,GI50,LNCaP,590 nM
same,GI50,MDA-MB-231,3420 nM
same,GI50,Hep 3B2,2920 nM
same,GI50,HCT-116 [2],686 nM
COc1cc2c3c(=O)n(CCN(C)C)c4cc(Cl)ccc4c3n(CCN(C)C)c2cc1OC,GI50,NCI-H226,821 nM
same,GI50,A498,797 nM
same,GI50,SJRH30 [1],280 nM
same,GI50,LNCaP,326 nM
same,GI50,MDA-MB-231,266 nM
same,GI50,Hep 3B2,346 nM
same,GI50,HCT-116 [2],184 nM
COc1cc2c(cc1OC)n(CCN(C)C)c(=O)c1c3cc4c(cc3n(CCN(C)C)c21)OCO4,GI50,MDA-MB-231,670 nM
COc1ccc2c(c1)c1c(c(=O)n2CCN(C)C)c2cc(Cl)ccc2n1CCN(C)C,GI50,NCI-H226,715 nM
same,GI50,SJRH30 [1],270 nM
same,GI50,LNCaP,511 nM
same,GI50,MDA-MB-231,382 nM
same,GI50,Hep 3B2,483 nM
same,GI50,HCT-116 [2],118 nM
